Laboratory results: PubChem BioAssay AID248 (DTP/NCI, 2004)
Values joined by “and” are separate entries in the source; they are usually repeats but may differ in a detail not shown here. Equal entries are not always repeated. Inconclusive results and toxic doses are left out. No stated cut-off is given here; in the data, active means T/C of 150% or more; inactive means T/C below 125%.

System: L1210 leukemia ip in BDF1 mice, survival T/C
Assay: NCI In Vivo Anticancer Drug Screen. Data for tumor model L1210 Leukemia (intraperitoneal) in B6D2F1 (BDF1) mice
Settings: endpoint: mean survival time, higher = longer survival
Outline: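 Survival endpoint. Drug-treated group vs vehicle group, expressed as T divided by C. Tumor passaged by transplantation.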

[1] = dose: 100.0 mg/kg/injection, schedule: Q01DX001 (ip), vehicle: saline with Tween-80
[2] = dose: 200.0 mg/kg/injection, schedule: Q01DX001 (ip), vehicle: saline with Tween-80
[3] = dose: 400.0 mg/kg/injection, schedule: Q01DX001 (ip), vehicle: saline with Tween-80
[4] = dose: 100.0 mg/kg/injection, schedule: Q01DX009 (ip), vehicle: saline with Tween-80
[5] = dose: 200.0 mg/kg/injection, schedule: Q01DX009 (ip), vehicle: saline with Tween-80
[6] = dose: 400.0 mg/kg/injection, schedule: Q01DX009 (ip), vehicle: saline with Tween-80
[7] = dose: 100.0 mg/kg/injection, schedule: Q04DX002 (ip), vehicle: Klucel (hydroxypropylcellulose) (HPC)
[8] = dose: 200.0 mg/kg/injection, schedule: Q04DX002 (ip), vehicle: Klucel (hydroxypropylcellulose) (HPC)
[9] = dose: 400.0 mg/kg/injection, schedule: Q04DX003 (ip), vehicle: saline
[10] = dose: 100.0 mg/kg/injection, schedule: Q04DX003 (ip), vehicle: saline with Tween-80
[11] = dose: 200.0 mg/kg/injection, schedule: Q04DX003 (ip), vehicle: saline with Tween-80
[12] = dose: 400.0 mg/kg/injection, schedule: Q04DX003 (ip), vehicle: saline with Tween-80

Measured: T/C

N=c1ncn(C2OC(COP(=O)(O)O)C(O)C2O)c2nc[nH]c12 (configuration not stated)
inactive: dose: 1.56 mg/kg/injection, schedule: Q01DX005 (ip), vehicle: water 102 % of control | dose: 6.25 mg/kg/injection, schedule: Q01DX005 (ip), vehicle: water 103 % of control | dose: 12.5 mg/kg/injection, schedule: Q01DX005 (ip), vehicle: water 105 % of control | dose: 25.0 mg/kg/injection, schedule: Q01DX005 (ip), vehicle: water 94 % of control

O=C1c2ccccc2C(=O)c2[nH]c(-c3ccccc3)cc21
inactive: [1] 94 % of control | [2] 94 % of control | [3] 94 % of control

CN(C)c1ccc(C=Nc2ccccc2)cc1
inactive: dose: 100.0 mg/kg/injection, schedule: Q01DX001 (ip), vehicle: other 98 % of control | dose: 200.0 mg/kg/injection, schedule: Q01DX001 (ip), vehicle: other 102 % of control | dose: 400.0 mg/kg/injection, schedule: Q01DX001 (ip), vehicle: other 108 % of control

C=CCNC(=O)Oc1cccc(NC(=O)C(C)CCC)c1 (configuration not stated)
inactive: [4] 101 % of control | [5] 95 % of control | [6] 108 % of control

O=S(=O)(O)C(O)c1ccccc1 (configuration not stated)
inactive: dose: 100.0 mg/kg/injection, schedule: Q04DX002 (ip), vehicle: saline 97 % of control | dose: 200.0 mg/kg/injection, schedule: Q04DX002 (ip), vehicle: saline 100 % of control | dose: 400.0 mg/kg/injection, schedule: Q04DX002 (ip), vehicle: saline 103 % of control

CC/C(=N/Nc1ccc([N+](=O)[O-])cc1[N+](=O)[O-])c1cccs1
inactive: dose: 100.0 mg/kg/injection, schedule: Q01DX001 (ip), vehicle: carboxymethylcellulose (CMC) 100 % of control | dose: 200.0 mg/kg/injection, schedule: Q01DX001 (ip), vehicle: carboxymethylcellulose (CMC) 97 % of control

Cc1c(Cl)cccc1NC(=O)C1CC(Br)C(Br)CC1C(=O)O (configuration not stated)
inactive: [7] 95 % of control | [8] 103 % of control | dose: 400.0 mg/kg/injection, schedule: Q04DX002 (ip), vehicle: Klucel (hydroxypropylcellulose) (HPC) 95 % of control

O=C([S][Pb]([c]1ccccc1)([c]1ccccc1)[c]1ccccc1)c1ccccc1
inactive: dose: 2.0 mg/kg/injection, schedule: Q01DX009 (ip), vehicle: Klucel (hydroxypropylcellulose) (HPC) 109 % of control | dose: 2.0 mg/kg/injection, schedule: Q04DX003 (ip), vehicle: Klucel (hydroxypropylcellulose) (HPC) 89 % of control | dose: 4.0 mg/kg/injection, schedule: Q01DX009 (ip), vehicle: Klucel (hydroxypropylcellulose) (HPC) 123 % of control | dose: 4.0 mg/kg/injection, schedule: Q04DX003 (ip), vehicle: Klucel (hydroxypropylcellulose) (HPC) 97 % of control | dose: 8.0 mg/kg/injection, schedule: Q01DX009 (ip), vehicle: Klucel (hydroxypropylcellulose) (HPC) 90 % of control | dose: 8.0 mg/kg/injection, schedule: Q04DX003 (ip), vehicle: Klucel (hydroxypropylcellulose) (HPC) 94 % of control and 97 % of control | dose: 11.0 mg/kg/injection, schedule: Q04DX003 (ip), vehicle: Klucel (hydroxypropylcellulose) (HPC) 100 % of control

Nc1ccc(NC=O)c(Cl)c1
inactive: dose: 100.0 mg/kg/injection, schedule: Q04DX003 (ip), vehicle: saline 102 % of control | dose: 200.0 mg/kg/injection, schedule: Q04DX003 (ip), vehicle: saline 108 % of control | [9] 102 % of control

O=C1NC(=O)C(c2ccc3c(c2)OCO3)N1 (configuration not stated)
inactive: [10] 104 % of control | [11] 102 % of control | [12] 101 % of control

CN(C)CCP(=O)(O)O
inactive: [4] 96 % of control | [5] 95 % of control | [6] 91 % of control

C/C=C1\CN2CCc3c(n(C)c4ccccc34)C2CC1C(=O)OC (configuration not stated)
inactive: [10] 101 % of control | [11] 88 % of control | [12] 106 % of control

C/C=C\S(=O)(=O)c1ccccc1
inactive: dose: 25.0 mg/kg/injection, schedule: Q04DX002 (ip), vehicle: Klucel (hydroxypropylcellulose) (HPC) 98 % of control | dose: 50.0 mg/kg/injection, schedule: Q04DX002 (ip), vehicle: Klucel (hydroxypropylcellulose) (HPC) 98 % of control | [7] 105 % of control | [8] 89 % of control

O=C(Nc1ccccc1-c1ccc([N+](=O)[O-])cc1)c1ccc(-c2ccccc2)cc1
inactive: [9] 92 % of control

CSc1nc(Cl)cc(N2CC2)n1
inactive: dose: 0.39 mg/kg/injection, schedule: Q01DX009 (ip), vehicle: saline 106 % of control | dose: 0.78 mg/kg/injection, schedule: Q01DX009 (ip), vehicle: saline 97 % of control | dose: 0.78 mg/kg/injection, schedule: Q04DX003 (ip), vehicle: saline 107 % of control | dose: 1.56 mg/kg/injection, schedule: Q01DX001 (ip), vehicle: saline 101 % of control | dose: 1.56 mg/kg/injection, schedule: Q04DX003 (ip), vehicle: saline 101 % of control | dose: 3.12 mg/kg/injection, schedule: Q01DX001 (ip), vehicle: saline 101 % of control | dose: 59.0 mg/kg/injection, schedule: Q01DX Z (ip), vehicle: methylcellulose (MC) 94 % of control | dose: 88.0 mg/kg/injection, schedule: Q01DX Z (ip), vehicle: methylcellulose (MC) 93 % of control

CCOC(=O)c1cc([N+](=O)[O-])c(C)s1
inactive: dose: 100.0 mg/kg/injection, schedule: Q01DX009 (sc), vehicle: olive oil, sesame oil, peanut oil 104 % of control | dose: 100.0 mg/kg/injection, schedule: Q04DX003 (sc), vehicle: olive oil, sesame oil, peanut oil 101 % of control | dose: 200.0 mg/kg/injection, schedule: Q01DX009 (sc), vehicle: olive oil, sesame oil, peanut oil 95 % of control | dose: 200.0 mg/kg/injection, schedule: Q04DX003 (sc), vehicle: olive oil, sesame oil, peanut oil 107 % of control | dose: 400.0 mg/kg/injection, schedule: Q01DX009 (sc), vehicle: olive oil, sesame oil, peanut oil 90 % of control | dose: 400.0 mg/kg/injection, schedule: Q04DX003 (sc), vehicle: olive oil, sesame oil, peanut oil 106 % of control

CCCCCCCCC[As](=O)(O)CCCCCCCCC
inactive: dose: 50.0 mg/kg/injection, schedule: Q01DX001 (ip), vehicle: saline 101 % of control | dose: 100.0 mg/kg/injection, schedule: Q01DX001 (ip), vehicle: saline 98 % of control | dose: 200.0 mg/kg/injection, schedule: Q01DX001 (ip), vehicle: saline 98 % of control | dose: 400.0 mg/kg/injection, schedule: Q01DX001 (ip), vehicle: saline 101 % of control

N#Cc1oc2ccccc2c1O
inactive: dose: 25.0 mg/kg/injection, schedule: Q01DX009 (ip), vehicle: saline with Tween-80 92 % of control | dose: 50.0 mg/kg/injection, schedule: Q01DX009 (ip), vehicle: saline with Tween-80 96 % of control | [4] 92 % of control | [10] 103 % of control

S=c1[nH]c(=S)c2[nH]cnc(=S)c2[nH]1
inactive: dose: 2.0 mg/kg/injection, schedule: Q01DX Z (ip), vehicle: carboxymethylcellulose (CMC) 103 % of control | dose: 4.0 mg/kg/injection, schedule: Q01DX Z (ip), vehicle: carboxymethylcellulose (CMC) 91 % of control | dose: 8.0 mg/kg/injection, schedule: Q01DX Z (ip), vehicle: carboxymethylcellulose (CMC) 89 % of control | dose: 12.5 mg/kg/injection, schedule: Q01DX Z (ip), vehicle: carboxymethylcellulose (CMC) 91 % of control | dose: 25.0 mg/kg/injection, schedule: Q01DX Z (ip), vehicle: carboxymethylcellulose (CMC) 96 % of control

Cc1ccc(Cl)cc1NC(=O)Nc1ccc(N(C)C)cc1
inactive: [1] 92 % of control | [4] 87 % of control and 90 % of control | dose: 100.0 mg/kg/injection, schedule: Q04DX002 (ip), vehicle: saline with Tween-80 95 % of control and 90 % of control | [10] 92 % of control | [2] 87 % of control | [5] 89 % of control and 90 % of control | dose: 200.0 mg/kg/injection, schedule: Q04DX002 (ip), vehicle: saline with Tween-80 98 % of control and 87 % of control | [11] 92 % of control | [3] 87 % of control | [6] 97 % of control and 91 % of control | dose: 400.0 mg/kg/injection, schedule: Q04DX002 (ip), vehicle: saline with Tween-80 87 % of control | [12] 89 % of control

C/C(Cc1cc(C)nc(N)n1)=N\Nc1ccccc1
inactive: dose: 6.25 mg/kg/injection, schedule: Q01DX009 (ip), vehicle: Klucel (hydroxypropylcellulose) (HPC) 93 % of control | dose: 12.5 mg/kg/injection, schedule: Q01DX009 (ip), vehicle: Klucel (hydroxypropylcellulose) (HPC) 115 % of control | dose: 25.0 mg/kg/injection, schedule: Q01DX009 (ip), vehicle: Klucel (hydroxypropylcellulose) (HPC) 91 % of control
